Measured values published in article PMC2873402, “Discovery of High-Affinity Protein Binding Ligands – Backwards” (PLoS ONE, 2010).
Bridge positions count the residues as written; N and C are the ends. Ends that are not written are not given here. I, II: the chains in the order shown. * marks the point of attachment. StBu = CC(C)(C)S*

Molecular target: AKT1 (Homo sapiens, UniProt P31749)
Test: IP of AKT1 from pre-cleared A549 lysate with silver stain detection
Format: binding
Set-up: purchased Life Technologies
Procedure: However, to more rigorously test the specificity of the synbody, we reduced the molar ratio of synbody to protein to approximately 2 to 1 and performed an IP to examine other proteins that were non-specifically bound by the synbody. In this experiment, 400 ng of AKT1 (66.4 nM) was spiked into 100 and 500 µg of A549 cell lysate pre-cleared on streptavidin beads (Figure S3) and precipitated using streptavidin beads coated with 15 pmols of synbody. Synbody coated beads and uncoated streptavidin beads were incubated overnight, washed, and bound proteins were eluted. Elution samples were split with half of the sample analyzed by silver stain and half analyzed by Western Blot (Figure 3E).
For all IP experiments, either a 1 µM or 250 nM solution of biotin-conjugated synbody was captured on 20 µL of streptavidin coated paramagnetic M-280 Dynabeads (Life Technologies) according to the manufacturers protocol. Synbody coated beads were washed five times with 1 mL of 100 mM phosphate buffered saline containing 0.05% Tween-20 (PBST) and incubated overnight at 4°C with shaking in the desired amount of target protein in A549 cell lysate. For Kd determination experiments, serial dilutions of AKT1 or ABL1 were prepared in binding buffer. After binding, beads were washed five times with 1 mL of PBST and heated at 70°C in 20 µL of 1× LDS loading buffer (Invitrogen) for 10 minutes. The samples were analyzed by SDS-PAGE gel with Western Blot detection using the appropriate antibody and imaged on a GE Healthcare Typhoon Trio.
Due to the high-level of A549 lysate protein binding to the magnetic beads used previously, we pre-cleared the cell lysate prior to IP. This was accomplished by overnight incubation of 1 mL of lysate (∼5 mg/mL) with 1 mL of streptavidin beads. The supernatant was removed and this lysate was used in subsequent experiments. […] One half of each elution sample was analyzed by SDS-PAGE followed by staining using a SNAP Silver Stain kit (Thermo Pierce) while the other half of the sample was analyzed by SDS-PAGE with Western Blot detection as before.

AKT1, sequence (P31749 whole entry): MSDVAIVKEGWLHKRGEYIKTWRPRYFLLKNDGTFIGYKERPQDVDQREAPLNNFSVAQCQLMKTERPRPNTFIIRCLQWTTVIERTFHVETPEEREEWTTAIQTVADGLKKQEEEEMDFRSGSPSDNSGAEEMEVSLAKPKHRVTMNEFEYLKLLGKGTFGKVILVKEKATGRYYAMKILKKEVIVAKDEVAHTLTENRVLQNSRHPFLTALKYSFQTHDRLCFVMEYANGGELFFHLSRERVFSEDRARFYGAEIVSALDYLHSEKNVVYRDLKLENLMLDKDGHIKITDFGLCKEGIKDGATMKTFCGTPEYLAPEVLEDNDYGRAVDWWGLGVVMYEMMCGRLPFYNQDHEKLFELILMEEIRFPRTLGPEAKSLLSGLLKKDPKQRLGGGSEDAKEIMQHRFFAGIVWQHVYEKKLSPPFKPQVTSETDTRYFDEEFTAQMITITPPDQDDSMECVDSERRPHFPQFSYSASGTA

I: AHKVVPQRQIRHAYNRYGSGKC(StBu)-NH2 / II: FRGWAHIFFGPHVIYRGGSG (amide I:21-II:C) [synbody]
proteins precipitated (silver stain) (400 ng AKT1 (66.4 nM) in pre-cleared A549 lysate, 500 µg (5mg/ml), 15 pmols synbody (approx. 2:1)): AKT1 was precipitated along with two other prominent proteins
dominant band precipitated (400 ng AKT1 in 100 or 500 µg pre-cleared A549 lysate, Western Blot confirmation): the dominant band precipitated by the synbody was AKT1
specificity (IP silver stain, A549 lysate): useful, though not perfect specificity
